The conditions of data set [1]: cited from earlier work.
A short description of data set [2]: time to dissolve artesunate powder in aqueous base solution to a clear solution. The data set is classed as physicochemical. The note with it: 10 mg of artesunate with 5% sodium bicarbonate solution. As to the method: The formulation was prepared prior to use by: providing artesunate; providing a solution comprising an organic base; and adding the solution to artesunate to provide the formulation. For example, the injectable formulation of the present disclosure was prepared by mixing artesunate with an aqueous solution containing a base described herein. Without wishing to be bound by theory, artesunate becomes negatively charged and dissolved. The formulation is freshly prepared immediately before use to minimize instability. In some embodiments, the injectable formulation is prepared by adding a solution of the disclosed bases to artesunate powder. The solution is about 5% glucose, normal saline, or about 5% glucose saline solution. Then the mixture is mixed gently to provide a clear injectable solution.
The formulation of the present disclosure is very convenient to prepare.

The conditions of data set [3]: cited from earlier work. The source holds these as a separate data set.
For data set [4] the following is noted: in vivo; cited from earlier work.

Turning to `C[C@H]1[C@H](OC(=O)CCC(=O)O)O[C@@H]2O[C@@]3(C)CC[C@H]4[C@H](C)CC[C@@H]1[C@@]24OO3` [artesunate], in data set [1] (organic solvents, such as acetone and methanol), the “solubility in organic solvents” value is given as “soluble”. In addition, the solubility in water entry in data set [1] (water) is given as “slightly soluble”. Moreover, the “time needed to dissolve” value in data set [2] is “five to seven”. Moreover, in data set [3], the “stability under basic and acidic conditions” value is “unstable”. In addition, the plasma half-life result in data set [4] is “about 20 minutes”.

These data come from US12083096B2, “Composition containing artesunate” (priority 2016, dated 2024).
